From patent US6884600B1, “Protein phosphatase-1 catalytic subunit interactions” (Medical Research Council London, priority 1996, dated 2005) come the findings set out here.

Assay [1] deals with PP1GL. Nature of the assay: Phosphorylase phosphatase activity of PP1GL (hepatic glycogen particles). It counts as biochemical, rat. On the procedure:
Hepatic glycogen particles were diluted in assay buffer to 0.6 phosphorylase phosphatase (PhP) mU per ml, incubated for 15 minutes at 30° C. with GM-(G63-T93) (closed circles), GM-(G63-K80) (open circles) or GM-(G63-N75) (closed triangles) and assayed as described in Example 1. The open triangles show the effect of GM-(G63-N75) which had been phosphorylated at Ser67 by PKA (pGM-(G63-N75)). Similar results were obtained in four experiments.
(A) Hepatic glycogen protein particles containing PP1-GL were diluted and incubated for 15 min at 30° C. with the indicated concentrations of either M110[M1-F38] (open circles) or M110[M1-K35] (closed circles) and the phosphatase reactions were initiated by addition of ^32P-labelled glycogen phosphorylase. The results are expressed as a percentage of the activity determined in control incubations where the M110 peptides were omitted. Similar results were obtained in three separate experiments. (B) The experiment was carried out as in (A), except that the peptide GM[G63-N75] (“wild type”, WT) and variants in which either Val 66 (V66A) (closed triangles) or Phe 68 (F68A) (closed circles) were changed to Ala, were used instead of the M110 peptides. Similar results were obtained in three separate experiments.
(§1) The myosin-associated form of PP1 (PP1M) was from chicken gizzard and the glycogen-associated form of PP1 (PP1G) from rabbit skeletal muscle. The β isoform of PP1c was released from PP1G by incubation for 2 hours in 2M LiBr, then purified by gel-filtration on a 30×1 cm column of Superose 12 (Pharmacia, Milton Keynes, U.K.) in the presence of 0.5M LiBr. Glycogen protein particles from rat liver were used as the source of hepatic PP1G Digoxygenin-labelled PP1c (γ1-isoform, hereafter termed PP1) was prepared as in [9]. GL was expressed in E. coli as a glutathione-S-transferase (GST) fusion protein [7], termed GST-GL. The catalytic subunit of PP2A from bovine heart (PP2AC) was provided by Dr R. MacKintosh in this Unit. The phosphorylatable myosin light chain (MLC20) and heavy meromyosin from chicken gizzard were a gift from Dr M. Ikebe (Case Western Reserve University, Cleveland, USA). Thrombin and benzamidine-Agarose were purchased from Sigma (Poole, UK).
(§2) ^32P-labelled rabbit skeletal muscle phosphorylase a (containing 1.0 mol phosphate per mol subunit) was prepared by phosphorylation with phosphorylase kinase, ^32P-labelled rabbit skeletal muscle glycogen synthase (containing 1.5 mol/mol subunit in the sites 3 region) was prepared by phosphorylation with glycogen synthase kinase-3 [24]). ^32P-labelled chicken gizzard MLC20 and ^32P-labelled chicken gizzard heavy meromyosin (containing 1.0 mol phosphate per mol subunit) were prepared by phosphorylation with smooth muscle myosin light chain kinase. The dephosphorylation of phosphorylase a (10 μM), glycogen synthase (1 μM) and MLC20 (1 μM) and heavy meromyosin (1 μM) was carried out as in [24]. One unit of activity (U) was that amount which released […] of phosphate in one minute.
(§3) PP1c was isolated from the rabbit skeletal muscle PP1-GM complex as described previously (Johnson et al, 1996). Glycogen particles isolated from rat liver (Schelling el al, 1988) served as the source of PP1-GL. The dephosphorylation of glycogen phosphorylase (10 μM) and the isolated MLC20 of smooth muscle myosin (1 μM) by PP1c was carried out as described previously (Cohen et al., 1988; Alessi et al., 1992).

The target of assay [2] is T1, PP1M (Gallus gallus, UniProt P62207).
T1 construct: from tissue; host or cells: chicken gizzard smooth muscle
T1 sequence (P62207 whole entry): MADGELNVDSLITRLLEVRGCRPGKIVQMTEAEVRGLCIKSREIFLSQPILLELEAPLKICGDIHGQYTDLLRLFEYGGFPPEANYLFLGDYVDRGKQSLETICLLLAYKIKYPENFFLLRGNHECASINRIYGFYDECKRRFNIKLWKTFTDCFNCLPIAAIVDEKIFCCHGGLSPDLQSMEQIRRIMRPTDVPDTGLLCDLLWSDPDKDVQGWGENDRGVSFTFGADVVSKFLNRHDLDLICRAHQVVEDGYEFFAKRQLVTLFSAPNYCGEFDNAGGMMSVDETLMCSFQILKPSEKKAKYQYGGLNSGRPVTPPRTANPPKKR
The assay can be described thus: Phosphorylase phosphatase activity of PP1M. It counts as biochemical, chicken. As for the experimental part:
(§4) (A) The phosphorylase phosphatase (PhP) activity of PP1M (closed circles) and its MLC20 phosphatase (MLCP) activity (open circles) were assayed after preincubation for 15 minutes at 30° C. with the indicated concentrations of GM-(G63-T93). Activities are shown relative to control incubations in which GM-(G63-T93) was omitted. Similar results were obtained in three experiments.
(§5) (A) PP1M from chicken gizzard smooth muscle (Alessi et al., 1992) was diluted and incubated for 15 min at 30° C. with the peptide […] (SEQ ID No 4), corresponding to the sequence in p53BP2 that contains the RVXF motif. Reactions were started with either ^32P-labelled MLC20 or glycogen phosphorylase and the MLC20 phosphatase (open circles) and phosphorylase phosphatase (PhP, closed circles) activities were determined. The results are expressed as a percentage of the activity determined in control incubations where the p53BP2 peptide was omitted (100%). Similar results were obtained in three separate experiments. (B) same as (A) except that the peptide was incubated with diluted hepatic glycogen particles containing PP1-GL before measuring the PhP activity. Similar results were obtained in three separate experiments.
(§6) The myosin-associated form of PP1 (PP1M) was from chicken gizzard and the glycogen-associated form of PP1 (PP1G) from rabbit skeletal muscle. […]

The target of assay [3] is T1, PP1M. The assay can be described thus: MLC20 phosphatase activity of PP1M. It counts as biochemical, chicken. As for the experimental part:
as §4, §5, §6

Another assay has as its system cultured cells. The assay can be described thus: Effect of p53BP2 peptide introduced into cultured cells (cell cycle, apoptosis; WAF1 ELISA, Nuclear Matrix Protein ELISA). It counts as cell-based. Particulars: Example 5, present tense, no data. From the text:
The function of p53BP2 is ascertained by examining the in vivo effect of peptides based on the sequence of the p53BP2 binding site to PP1. This may be done by reference to the consensus peptide sequence described in the previous Examples and by reference to the crystal structure in Example 2. The peptide is introduced into cultured cells using penetratin available from Appligene. Other importins may also be used. Alternatively cDNA specifying p53BP2 proteins mutant in the p53BP2 binding site to PP1 are transfected in cultured cells. The effect of these agents on the cell cycle and apoptosis are assessed by a number of methods, for example WAF1 ELISA and Nuclear Matrix Protein ELISA assays (Amersham).
(In general: ELISA stands for enzyme-linked immunosorbent assay.)

Assay [4] deals with T2, PP1c (Oryctolagus cuniculus, UniProt P62143).
T2 construct: from tissue; host or cells: rabbit skeletal muscle (PP1G dissociated with LiBr)
T2 sequence (P62143 whole entry): as the sequence (P62207 whole entry) above
The assay can be described thus: Phosphorylase phosphatase activity of PP1c. It counts as biochemical, rabbit. As for the experimental part: (§7) A,B; Effects of M110-(M1-E309) (closed circles), M110-(M1-F38) (open circles) and M110-(D39-E309) (open triangles) on the MLC20 phosphatase […] and phosphorylase phosphatase (B) activities of PP1c were measured after incubating PP1c for 15 minutes at 30° C. with each fragment. The results are presented as a percentage of those obtained in experiments where the M110 fragments were omitted.
(§8) C,D; The effect of M110-(M1-A150) (open circles) and M110-(L24-Y496) (closed circles) on the MLC20 phosphatase (C) and phosphorylase phosphatase (D) activities of PP1c were measured as in A,B.
(B) The phosphorylase phosphatase activity of PP1c was assayed as in A in the presence or absence of 1 μM GM-(G63-T93) and 1.0 nM M110-(M1-E309). The results are presented (SEM for three experiments) as a percentage of the PP1c activity measured in the absence of GM-(63-T93), M110-(M1-F38) or M110-(M1-E309).
as §1, §2, §3

The target of assay [5] is T2, PP1c. Nature of the assay: MLC20 (myosin P-light chain) phosphatase activity of PP1c. It counts as biochemical. On the procedure:
as §7, §8
(A) The MLC20 phosphatase activity of PP1c was assayed after incubation for 15 minutes at 30° C. in the presence or absence of 1 μM GM-(G63-T93) and either 0.1 μM M110-(M1-F38) or 0.1 nM M110-(M1-E309).
(1-38, open circles) or M110[M1-K35] (1-35, closed circles) were incubated with PP1c for 15 min at 30° C. and reactions started with the ^32P-labelled MLC20 substrate. The results are expressed as a % of the activity determined in control incubations where the M110 peptides were omitted (100%). Similar results were obtained in three separate experiments.
as §1, §2, §3
^32P-labelled myosin P-light chains containing 1.0 mol phosphate per mol subunit was prepared by phosphorylation with smooth muscle myosin light chain kinase. The dephosphorylation of myosin P-light chain (1 μM) was carried out as in [4] and one unit of activity (U) was that amount which catalysed the release of 1 μmole of phosphate in one min. When assaying PP1M in immunoprecipitates from the myofibrillar extracts, the tubes were shaken continuously and 3 nM okadaic acid was included to inhibit any PP2A present.

Assay [6] relates to PP1GL. Nature of the assay: Glycogen synthase phosphatase activity of PP1GL. It counts as biochemical, rat. On the procedure: as §1, with “UK). […]” for “UK).”
For assay [7], the target named is T1, PP1M. Nature of the assay: Gel filtration of PP1M on Superose 12 with or without GM-(G63-T93). It counts as binding, chicken. On the procedure: (B,C) PPIM was incubated for 15 minutes at 30° C. in the absence (B) and presence (C) of […] GM-(G63-T93), then passed through a 30×1 cm column of Superose 12 equilibrated at ambient temperature in 50 mM Tris/HCl pH 7.5, 0.2M NaCl, 0.1 mM EGTA, 0.1% (by vol) 2-mercaptoethanol, 0.03% (by mass) Brij 35 in the absence (B) or presence (C) of 1 μM GM-(G63-T93). Fractions (0.25 ml) were assayed for MLC20 phosphatase (MLCP) in B and for phosphorylase phosphatase (PhP) activity in C. The arrows denote the position of ferritin (450 kDa) and ovalbumin (43 kDa).

“Also recorded” adds a separate entry of the source.

Consider “GKRTNLRKTGSERIAHGMRVKFNPLALLLDSC [32 residue peptide from p53BP2]”, for which the “effect on the phosphorylase phosphatase activity of PP1GL” value in the assay with PP1GL [1] (hepatic glycogen particles containing PP1-GL) was “increase in the rate of dephosphorylation of glycogen phosphorylase”. In addition, in the assay with PP1M [2], the “effect on the phosphorylase phosphatase activity of PP1M” value is reported as “increase in the rate of dephosphorylation of glycogen phosphorylase”. Also, the “effect on the MLC20 phosphatase activity of PP1M” value in the assay with PP1M [3] is given as “decrease in the rate of dephosphorylation of the MLC20 subunit of smooth muscle myosin”. For the same sequence, the “effect of the peptide in cultured cells” value in the assay with cultured cells is “modulate the interaction between PP1 and p53BP2 in vivo and affect cell regulation and apoptosis”.

For the sequence “GRRVSFADNFGFNLVSVKEFDTWELPSVSTT [GM-(G63-T93), synthetic peptide, residues 63-93 of rabbit GM]”, the “displacement of GL from PP1c” value in the assay on PP1GL [1] is recorded as “does not displace GL from PP1c”. For the same sequence, the “increase in the phosphorylase phosphatase activity of PP1GL” value with PP1GL [1] (hepatic glycogen particles, 15 min 30° C.) was “sixfold”. Also, the EC50 on PP1GL [1] (hepatic glycogen particles, 15 min 30° C., read-out: concentration required for 50% activation of the phosphorylase phosphatase activity of PP1GL) was 30 nM. On PP1c [4], the “prevention of suppression of the phosphorylase phosphatase activity of PP1c by a regulatory subunit or fragment” value was “prevented bacterially expressed GST-GL from suppressing the phosphorylase phosphatase activity of PP1c; also recorded: prevented M110-(M1-E309) from suppressing the phosphorylase phosphatase activity of PP1c”. Also, the “maximal stimulation of the phosphorylase phosphatase activity of PP1c” value on PP1c [4] (SEM for three experiments) is 37+1.4%. Moreover, on PP1c [5], the “prevention of stimulation of the MLC20 phosphatase activity of PP1c by M110 fragments” value is recorded as “prevented M110-(M1-F38) or M110-(M1-E309) from stimulating the MLC20 phosphatase activity of PP1c”. In addition, in the assay with PP1GL [6], the “effect on the glycogen synthase phosphatase activity of PP1GL” value is “no effect”. Besides, at PP1M [2] (10 μM peptide), the “increase in the phosphorylase phosphatase activity of PP1M” value is listed as “about 7 fold”. For the same sequence, the “suppression of the MLC20 phosphatase activity of PP1M” value at PP1M [3] (10 μM peptide) is given as 60-65%. For the same sequence, the “dissociation of PP1M in gel-filtration experiments” value on PP1M [7] is listed as “displaced the M110 subunit from PP1M”.
